# Patent US20240018123A1, “COMPOUND FOR INHIBITING OR DISINTEGRATING ANDROGEN RECEPTOR, AND PHARMACEUTICAL USE THEREOF” (KOREA RESEARCH INSTITUTE OF CHEMICAL TECHNOLOGY, priority 2020, published 2024)
# System: VCaP cells
# Assay: Cytotoxicity assessment (Cell-titer-glo cell viability), VCaP
# Conditions: read-out: VCaP (CC50); VCaP cells, 6 days of treatment, Cell-titer-glo, vs DMSO
compound,measurement,value
"CC1(C)[C@H](NC(=O)c2ccc(N3CCN(CCCc4cn(-c5ccc6nnn(C7CCC(=O)NC7=O)c(=O)c6c5)nn4)CC3)cc2)C(C)(C)[C@H]1Oc1ccc(C#N)c(Cl)c1 (stereo partly drawn) [Example 134, N-((1r,3r)-3-(3-chloro-4-cyanophenoxy)-2,2,4,4-tetramethylcyclobutyl)-4-(4-(3-(1-(3-(2,6-dioxopiperidin-3-yl)-4-oxo-3,4-dihydrobenzo[d][1,2,3]triazin-6-yl)-1H-1,2,3-triazol-4-yl)propyl)piperazin-1-yl)benzamide]",CC50,64.5 nM
"CC1(C)C(NC(=O)c2ccc(-c3cnn(C4CCN(CC5CCN(C(=O)CNc6ccc7nnn(C8CCC(=O)NC8=O)c(=O)c7c6)CC5)CC4)c3)nc2)C(C)(C)C1Oc1ccc(C#N)c(Cl)c1 (stereo not drawn) [Example 125, N-((1r,3r)-3-(3-chloro-4-cyanophenoxy)-2,2,4,4-tetramethylcyclobutyl)-6-(1-(1-((1-((3-(2,6-dioxopiperidin-3-yl)-4-oxo-3,4-dihydrobenzo[d][1,2,3]triazin-6-yl)glycyl)piperidin-4-yl)methyl)piperidin-4-yl)-1H-pyrazol-4-yl)nicotinamide]",CC50,15.5 nM
"CC1(C)C(NC(=O)c2cnc(N3CCN(CC4CCN(C(=O)C5CN(c6ccc7nnn(C8CCC(=O)NC8=O)c(=O)c7c6)C5)CC4)CC3)nc2)C(C)(C)C1Oc1ccc(C#N)c(Cl)c1 (stereo not drawn) [Example 146, N-((1r,3r)-3-(3-chloro-4-cyanophenoxy)-2,2,4,4-tetramethylcyclobutyl)-2-(4-((1-(1-(3-(2,6-dioxopiperidin-3-yl)-4-oxo-3,4-dihydrobenzo[d][1,2,3]triazin-6-yl)azetidine-3-carbonyl)piperidin-4-yl)methyl)piperazin-1-yl)pyrimidine-5-carboxamide]",CC50,~10 nM
"CC1(C)C(NC(=O)c2ccc(CCN3CCN(CC4CCN(C(=O)C5CCN(c6ccc7nnn(C8CCC(=O)NC8=O)c(=O)c7c6)CC5)CC4)CC3)cc2)C(C)(C)C1Oc1ccc(C#N)c(Cl)c1 (stereo not drawn) [Example 108, N-((1r,3r)-3-(3-chloro-4-cyanophenoxy)-2,2,4,4-tetramethylcyclobutyl)-4-(2-(4-((1-(1-(3-(2,6-dioxopiperidin-3-yl)-4-oxo-3,4-dihydrobenzo[d][1,2,3]triazin-6-yl)piperidine-4-carbonyl)piperidin-4-yl)methyl)piperazin-1-yl)ethyl)benzamide]",CC50,18.8 nM
"CC1(C)C(NC(=O)c2ccc(CCN3CCN(CC4CCN(C(=O)C5CN(c6ccc7nnn(C8CCC(=O)NC8=O)c(=O)c7c6)C5)CC4)CC3)cc2)C(C)(C)C1Oc1ccc(C#N)c(Cl)c1 (stereo not drawn) [Example 109, N-((1r,3r)-3-(3-chloro-4-cyanophenoxy)-2,2,4,4-tetramethylcyclobutyl)-4-(2-(4-((1-(1-(3-(2,6-dioxopiperidin-3-yl)-4-oxo-3,4-dihydrobenzo[d][1,2,3]triazin-6-yl)azetidine-3-carbonyl)piperidin-4-yl)methyl)piperazin-1-yl)ethyl)benzamide]",CC50,13 nM
"CC1(C)C(NC(=O)c2ccc(-c3cnn(C4CCN(CC5CCN(C(=O)COc6ccc7nnn(C8CCC(=O)NC8=O)c(=O)c7c6)CC5)CC4)c3)cc2)C(C)(C)C1Oc1ccc(C#N)c(Cl)c1 (stereo not drawn) [Example 113, N-((1r,3r)-3-(3-chloro-4-cyanophenoxy)-2,2,4,4-tetramethylcyclobutyl)-4-(1-(1-((1-(2-((3-(2,6-dioxopiperidin-3-yl)-4-oxo-3,4-dihydrobenzo[d][1,2,3]triazin-6-yl)oxy)acetyl)piperidin-4-yl)methyl)piperidin-4-yl)-1H-pyrazol-4-yl)benzamide]",CC50,30 nM
"CC1(C)C(NC(=O)c2ccc(-n3cc(CNC(=O)C4CCN(c5ccc6nnn(C7CCC(=O)NC7=O)c(=O)c6c5)CC4)nn3)cc2)C(C)(C)C1Oc1ccc(C#N)c(Cl)c1 (stereo not drawn) [Example 150, N-((1-(4-(((1r,3r)-3-(3-chloro-4-cyanophenoxy)-2,2,4,4-tetramethylcyclobutyl)carbamoyl)phenyl)-1H-1,2,3-triazol-4-yl)methyl)-1-(3-(2,6-dioxopiperidin-3-yl)-4-oxo-3,4-dihydrobenzo[d][1,2,3]triazin-6-yl)piperidine-4-carboxamide]",CC50,24.4 nM
"CC1(C)[C@H](NC(=O)c2ccc(-n3cc(CNc4ccc5nnn(C6CCC(=O)NC6=O)c(=O)c5c4)nn3)cc2)C(C)(C)[C@H]1Oc1ccc(C#N)c(Cl)c1 (stereo partly drawn) [Example 149, N-((1r,3r)-3-(3-chloro-4-cyanophenoxy)-2,2,4,4-tetramethylcyclobutyl)-4-(4-(((3-(2,6-dioxopiperidin-3-yl)-4-oxo-3,4-dihydrobenzo[d][1,2,3]triazin-6-yl)amino)methyl)-1H-1,2,3-triazol-1-yl)benzamide]",CC50,> 10000 nM
"CC1(C)C(NC(=O)c2ccc(-n3cc(CC4CCN(C(=O)C5CCN(c6ccc7nnn(C8CCC(=O)NC8=O)c(=O)c7c6)CC5)CC4)nn3)cc2)C(C)(C)C1Oc1ccc(C#N)c(Cl)c1 (stereo not drawn) [Example 104, N-((1r,3r)-3-(3-chloro-4-cyanophenoxy)-2,2,4,4-tetramethylcyclobutyl)-4-(4-((1-(1-(3-(2,6-dioxopiperidin-3-yl)-4-oxo-3,4-dihydrobenzo[d][1,2,3]triazin-6-yl)piperidine-4-carbonyl)piperidin-4-yl)methyl)-1H-1,2,3-triazol-1-yl)benzamide]",CC50,16.9 nM
"CC1(C)C(NC(=O)c2ccc(-n3cc(CN4CCN(C(=O)C5CCN(c6ccc7nnn(C8CCC(=O)NC8=O)c(=O)c7c6)CC5)CC4)nn3)cc2)C(C)(C)C1Oc1ccc(C#N)c(Cl)c1 (stereo not drawn) [Example 121, N-((1r,3r)-3-(3-chloro-4-cyanophenoxy)-2,2,4,4-tetramethylcyclobutyl)-4-(4-((4-(1-(3-(2,6-dioxopiperidin-3-yl)-4-oxo-3,4-dihydrobenzo[d][1,2,3]triazin-6-yl)piperidine-4-carbonyl)piperazin-1-yl)methyl)-1H-1,2,3-triazol-1-yl)benzamide]",CC50,18 nM
"CC1(C)C(NC(=O)c2ccc(N3CC4CN(CC5CCN(C(=O)CNc6ccc7nnn(C8CCC(=O)NC8=O)c(=O)c7c6)CC5)CC4C3)cc2)C(C)(C)C1Oc1ccc(C#N)c(Cl)c1 (stereo not drawn) [Example 138, N-((1r,3r)-3-(3-chloro-4-cyanophenoxy)-2,2,4,4-tetramethylcyclobutyl)-4-(5-((1-((3-(2,6-dioxopiperidin-3-yl)-4-oxo-3,4-dihydrobenzo[d][1,2,3]triazin-6-yl)glycyl)piperidin-4-yl)methyl)hexahydropyrrolo[3,4-c]pyrrol-2(1H)-yl)benzamide]",CC50,63.7 nM
"CC1(C)C(NC(=O)c2ccc(-n3cc(CCOCCOCCNC(=O)CNc4ccc5nnn(C6CCC(=O)NC6=O)c(=O)c5c4)nn3)cc2)C(C)(C)C1Oc1ccc(C#N)c(Cl)c1 (stereo not drawn) [Example 159, N-((1r,3r)-3-(3-chloro-4-cyanophenoxy)-2,2,4,4-tetramethylcyclobutyl)-4-(4-(2-(2-(2-(2-((3-(2,6-dioxopiperidin-3-yl)-4-oxo-3,4-dihydrobenzo[d][1,2,3]triazin-6-yl)amino)acetamido)ethoxy)ethoxy)ethyl)-1H-1,2,3-triazol-1-yl)benzamide]",CC50,109 nM
"CC1(C)C(NC(=O)c2ccc(N3CC4CN(C(=O)CNc5ccc6nnn(C7CCC(=O)NC7=O)c(=O)c6c5)CC4C3)cc2)C(C)(C)C1Oc1ccc(C#N)c(Cl)c1 (stereo not drawn) [Example 136, N-((1r,3r)-3-(3-chloro-4-cyanophenoxy)-2,2,4,4-tetramethylcyclobutyl)-4-(5-((3-(2,6-dioxopiperidin-3-yl)-4-oxo-3,4-dihydrobenzo[d][1,2,3]triazin-6-yl)glycyl)hexahydropyrrolo[3,4-c]pyrrol-2(1H)-yl)benzamide]",CC50,67.7 nM
"CC1(C)[C@H](NC(=O)c2cnc(N3CCN(CC4CCN(C(=O)C5CCN(c6ccc7nnn(C8CCC(=O)NC8=O)c(=O)c7c6)CC5)CC4)CC3)nc2)C(C)(C)[C@H]1Oc1ccc(C#N)c(Cl)c1 (stereo partly drawn) [Example 145, N-((1r,3r)-3-(3-chloro-4-cyanophenoxy)-2,2,4,4-tetramethylcyclobutyl)-2-(4-((1-(1-(3-(2,6-dioxopiperidin-3-yl)-4-oxo-3,4-dihydrobenzo[d][1,2,3]triazin-6-yl)piperidine-4-carbonyl)piperidin-4-yl)methyl)piperazin-1-yl)pyrimidine-5-carboxamide]",CC50,~10 nM
"CC1(C)C(NC(=O)c2ccc(-n3cc(CCOCCOCCNC(=O)C4CN(c5ccc6nnn(C7CCC(=O)NC7=O)c(=O)c6c5)C4)nn3)cc2)C(C)(C)C1Oc1ccc(C#N)c(Cl)c1 (stereo not drawn) [Example 157, N-(2-(2-(2-(1-(4-(((1r,3r)-3-(3-chloro-4-cyanophenoxy)-2,2,4,4-tetramethylcyclobutyl)carbamoyl)phenyl)-1H-1,2,3-triazol-4-yl)ethoxy)ethoxy)ethyl)-1-(3-(2,6-dioxopiperidin-3-yl)-4-oxo-3,4-dihydrobenzo[d][1,2,3]triazin-6-yl)azetidine-3-carboxamide]",CC50,32.1 nM
"CC1(C)C(NC(=O)c2ccc(-c3cnn(C4CCN(CC5CCN(C(=O)C6CCN(c7ccc8nnn(C9CCC(=O)NC9=O)c(=O)c8c7)CC6)CC5)CC4)c3)nc2)C(C)(C)C1Oc1ccc(C#N)c(Cl)c1 (stereo not drawn) [Example 124, N-((1r,3r)-3-(3-chloro-4-cyanophenoxy)-2,2,4,4-tetramethylcyclobutyl)-6-(1-(1-((1-(1-(3-(2,6-dioxopiperidin-3-yl)-4-oxo-3,4-dihydrobenzo[d][1,2,3]triazin-6-yl)piperidine-4-carbonyl)piperidin-4-yl)methyl)piperidin-4-yl)-1H-pyrazol-4-yl)nicotinamide]",CC50,13 nM
"CC1(C)[C@H](NC(=O)c2cnc(N3CCN(CC4CCN(c5ccc6nnn(C7CCC(=O)NC7=O)c(=O)c6c5)CC4)CC3)nc2)C(C)(C)[C@H]1Oc1ccc(C#N)c(Cl)c1 (stereo partly drawn) [Example 100, N-((1r,3r)-3-(3-chloro-4-cyanophenoxy)-2,2,4,4-tetramethylcyclobutyl)-2-(4-((1-(3-(2,6-dioxopiperidin-3-yl)-4-oxo-3,4-dihydrobenzo[d][1,2,3]triazin-6-yl)piperidin-4-yl)methyl)piperazin-1-yl)pyrimidine-5-carboxamide]",CC50,2 nM
"CC1(C)[C@H](NC(=O)c2ccc(N3CCN(Cc4cn(-c5ccc6nnn(C7CCC(=O)NC7=O)c(=O)c6c5)nn4)CC3)cc2)C(C)(C)[C@H]1Oc1ccc(C#N)c(Cl)c1 (stereo partly drawn) [Example 91, N-((1r,3r)-3-(3-chloro-4-cyanophenoxy)-2,2,4,4-tetramethylcyclobutyl)-4-(4-((1-(3-(2,6-dioxopiperidin-3-yl)-4-oxo-3,4-dihydrobenzo[d][1,2,3]triazin-6-yl)-1H-1,2,3-triazol-4-yl)methyl)piperazin-1-yl)benzamide]",CC50,262 nM
